Source: US8877763B2, “Substituted pyridopyrimidine compounds and their use as FLT3 inhibitors” (Genosco, priority 2012, dated 2014)
Changes are numbered by the printed parent chain. Structures can show the parent of a compound that is named as a salt.

Experiments:
[1] = tested on: MV4-11 cells expressing human FLT3-ITD; test: Cell viability assay: inhibition of FLT3-ITD-positive cells (ATPLite); assay type: cell-based; settings: 72 hour incubation
Protocol: Compounds of the invention were tested for cell viability effect on MV4-11 cells. For cell viability assay, MV4-11 cells expressing human FLT3-ITD were obtained from the American Type Culture Collection (ATCC, Manassas, Va.). This cell line was maintained with an Roswell Park Memorial Institute (RPMI) medium (HyClone™) containing 10 bovine calf serum (BCS; Hyclone™) supplemented iron. The MV4-11 cells were seeded at 2×10^4 cells in 96-well culture plates, and serially diluted compound was then added. After a 72 hour incubation period at 37° C., cell viability was measured using the ATPLite 1 step assay (Perkin-Elmer™) that is based on the quantification of ATP from viable cells. CellTiter Aqueous assay (Promega™) was also performed in parallel as an orthogonal assay. IC50 values were calculated using nonlinear regression and defined as the concentration needed for a 50 reduction in luminescence or absorbance treated versus untreated control cells (Prism™ Software).

[2] = biological target: T1, Truncated human FLT3 wildtype (Homo sapiens, UniProt P36888); test: Inhibition of enzymatic FLT3 wildtype kinase activity (Lance Ulight TR-FRET); assay type: biochemical
T1 construct: Truncated human FLT3 wildtype; purchased Carna Biosciences
T1 sequence (P36888 564-993 limits assumed): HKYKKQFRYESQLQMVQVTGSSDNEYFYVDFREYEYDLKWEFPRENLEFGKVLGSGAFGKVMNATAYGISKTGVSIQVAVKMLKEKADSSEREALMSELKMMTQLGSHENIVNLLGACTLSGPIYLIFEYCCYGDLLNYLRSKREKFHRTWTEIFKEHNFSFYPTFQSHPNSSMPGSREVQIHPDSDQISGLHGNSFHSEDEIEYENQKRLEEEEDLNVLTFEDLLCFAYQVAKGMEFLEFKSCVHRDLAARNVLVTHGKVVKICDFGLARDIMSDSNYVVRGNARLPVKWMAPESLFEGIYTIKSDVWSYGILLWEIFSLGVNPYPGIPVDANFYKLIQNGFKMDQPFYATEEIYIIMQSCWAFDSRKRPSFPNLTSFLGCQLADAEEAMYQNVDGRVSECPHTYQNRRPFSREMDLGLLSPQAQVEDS
Protocol: (§1) Compounds of the invention were initially diluted to 10 mM in 100% DMSO (CALBIOCHEM™) for storage and made into kinase buffer solution to create a compound concentration ranging from 1 uM and 10 uM. Serial dilutions of compounds of the invention were dispensed into a 96-well plate (GREINER BIOSCIENCES™) at 6 μL each.

JAK2 = biological target: T2, JAK2 (Homo sapiens, UniProt O60674); test: Inhibition of enzymatic JAK2 kinase activity (Lance Ulight TR-FRET); assay type: biochemical
T2 construct: Truncated human FLT3 wildtype, mutant D835Y, and JAK2; purchased Carna Biosciences
T2 sequence (O60674 826-1132 limits assumed): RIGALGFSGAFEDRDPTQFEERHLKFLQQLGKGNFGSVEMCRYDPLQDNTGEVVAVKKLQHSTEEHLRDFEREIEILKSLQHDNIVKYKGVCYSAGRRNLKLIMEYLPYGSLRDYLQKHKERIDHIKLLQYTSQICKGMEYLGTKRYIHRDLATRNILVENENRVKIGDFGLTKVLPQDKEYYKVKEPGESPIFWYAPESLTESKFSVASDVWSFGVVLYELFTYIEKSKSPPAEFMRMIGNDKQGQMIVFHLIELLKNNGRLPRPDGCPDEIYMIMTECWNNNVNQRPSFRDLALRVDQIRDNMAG
Protocol: as §1

FLT3 mutant D835Y = biological target: T3, FLT3 mutant D835Y (Homo sapiens, UniProt P36888, D835Y); test: Inhibition of enzymatic FLT3 mutant D835Y kinase activity (Lance Ulight TR-FRET); assay type: biochemical
T3 construct: Truncated human FLT3 wildtype, mutant D835Y; purchased Carna Biosciences
T3 sequence (P36888 564-993 D835Y limits assumed): T1 sequence (P36888 564-993 limits assumed) with D272Y
Protocol: as §1

[3] = tested on: MV4-11 cell line of FLT3-ITD; test: Xenograft mouse model using MV4-11 cell line; assay type: in vivo, Balb/C nude mice; settings: for Means of Tumor Volume / Percent Tumor Regression (PTR %): 30 mg/kg every day
Protocol: Compounds of the invention were tested in xenograft mouse model using MV4-11 cell line of FLT3-ITD. All male animals of 6 weeks old Balb/C nude mice were housed in plastic cages (4˜6 mice/cage) containing corn cob and maintained in a pathogen-free facility (20˜25° C., 30˜70% humidity) with a 12 hour light:dark cycle. Tumor model was established by subcutaneous injection with MV4-11 cell suspension. When the average tumor volume reached approximately 400 mm^3 (˜5 weeks post tumor implantation), the tumor bearing-mice were assigned 2 groups (9 mice per each). The compound 238 treatment of 30 mg/kg every day was initiated and continue for 28 days. The vehicle 20% hydroxyl-β-cyclodextrin was used. Tumor volume was measured twice weekly. Where applicable, percent tumor regression (PTR) for each group will be calculated by the formula: PTR=100×(tumor volumeinitial−tumor volumefinal)/(tumor volumeinitial).

CN1CCC(Nc2nc(Nc3ccc(OCc4ccccc4)cc3)c3c(=O)[nH]cc(Br)c3n2)CC1 [Compound 221, 4-((4-(benzyloxy)phenyl)amino)-8-bromo-2-((1-methylpiperidin-4-yl)amino)pyrido[4,3-d]pyrimidin-5(6H)-one]
IC50 ([1]; Homo sapiens, MV4-11, 72 h): 2.4 nM | IC50 [2]: 0.1 nM | IC50 (JAK2): 290 nM | IC50 (FLT3 mutant D835Y): 0.4 nM

CN1CCC(Nc2nc(Nc3ccc(OC4CCCC4)cc3)c3c(=O)[nH]cc(Br)c3n2)CC1 [Compound 223, 8-bromo-4-((4-(cyclopentyloxy)phenyl)amino)-2-((1-methylpiperidin-4-yl)amino)pyrido[4,3-d]pyrimidin-5(6H)-one]
IC50 [2]: 0.6 nM | IC50 (JAK2): 153 nM | IC50 (FLT3 mutant D835Y): 0.3 nM

Cc1ccc(Oc2ccc(Nc3nc(NC4CCN(C)CC4)nc4c(Br)c[nH]c(=O)c34)cc2)cc1 [Compound 225, 8-bromo-2-((1-methylpiperidin-4-yl)amino)-4-((4-(p-tolyloxy)phenyl)amino)pyrido[4,3-d]pyrimidin-5(6H)-one]
IC50 [2]: 0.3 nM | IC50 (JAK2): 1520 nM | IC50 (FLT3 mutant D835Y): 1.6 nM

CN1CCC(Nc2nc(Nc3ccc(Oc4ccccc4)cc3)c3c(=O)[nH]cc(Br)c3n2)CC1 [Compound 226, 8-Bromo-2-(1-methylpiperidin-4-ylamino)-4-(4-phenoxyphenylamino)pyrido[4,3-d]pyrimidin-5(6H)-one hydrochloride]
IC50 (JAK2): 281 nM

CN1CCC(Nc2nc(Nc3ccc(OC4CCCCC4)cc3)c3c(=O)[nH]cc(Br)c3n2)CC1 [Compound 228, 8-bromo-4-((4-(cyclohexyloxy)phenyl)amino)-2-((1-methylpiperidin-4-yl)amino)pyrido[4,3-d]pyrimidin-5(6H)-one]
IC50 [1]: 0.8 nM | IC50 [2]: 0.1 nM | IC50 (JAK2): 129 nM | IC50 (FLT3 mutant D835Y): 0.6 nM

CN1CCC(Nc2nc(Nc3ccc(OC4CCCCC4)cc3)c3c(=O)[nH]cc(Br)c3n2)CC1 [Compound 233, 8-bromo-4-((4-(cyclohexyloxy)phenyl)amino)-2-((1-methylpiperidin-4-yl)amino) pyrido[4,3-d]pyrimidin-5(6H)-one hydrochloride]
IC50 ([1]; Homo sapiens, MV4-11, 72 h): 1.4 nM | IC50 (JAK2): 173 nM | IC50 (FLT3 mutant D835Y): 0.3 nM

CN1CCC(Nc2nc(Nc3ccc(OCC4CCCC4)cc3)c3c(=O)[nH]cc(Br)c3n2)CC1 [Compound 235, 8-bromo-4-((4-(cyclopentylmethoxy)phenyl)amino)-2-((1-methylpiperidin-4-yl)amino)pyrido[4,3-d]pyrimidin-5(6H)-one]
IC50 ([1]; Homo sapiens, MV4-11, 72 h): 1.6 nM

CN1CCC(Nc2nc(Nc3ccc(OC4CCCC4)cc3)c3c(=O)[nH]cc(Br)c3n2)CC1 [Compound 237, 8-bromo-4-(4-(cyclopentyloxy)phenylamino)-2-(1-methylpiperidin-4-ylamino)pyrido[4,3-d]pyrimidin-5(6H)-one hydrochloride]
IC50 ([1]; Homo sapiens, MV4-11, 72 h): 0.5 nM

CN1CCC(Nc2nc(Nc3ccc(Oc4cccc(F)c4)cc3)c3c(=O)[nH]cc(Br)c3n2)CC1.Cl [Compound 238, 8-bromo-4-(4-(3-fluorophenoxy)phenylamino)-2-(1-methylpiperidin-4-ylamino)pyrido[4,3-d]pyrimidin-5(6H)-one hydrochloride]
IC50 ([1]; hydrochloride): 1.9 nM | IC50 [2]: 1.4 nM | inhibition of kinase activity of FLT3 wildtype (in words) [2]: strong inhibition | Means of Tumor Volume ([3]; day of treatment 1): 312.8 mm^3 | Means of Tumor Volume ([3]; day of treatment 4): 79.4 mm^3 | Percent Tumor Regression (PTR %) ([3]; day of treatment 4): 74.6% | Means of Tumor Volume ([3]; day of treatment 7): 27.6 mm^3 | Percent Tumor Regression (PTR %) ([3]; day of treatment 7): 91.2% | Means of Tumor Volume ([3]; day of treatment 11): 0 mm^3 | Percent Tumor Regression (PTR %) ([3]; day of treatment 11): 100% | Means of Tumor Volume ([3]; day of treatment 14): 0 mm^3 | Percent Tumor Regression (PTR %) ([3]; day of treatment 14): 100% | Means of Tumor Volume ([3]; day of treatment 17): 0 mm^3 | Percent Tumor Regression (PTR %) ([3]; day of treatment 17): 100% | Means of Tumor Volume ([3]; day of treatment 21): 0 mm^3 | Percent Tumor Regression (PTR %) ([3]; day of treatment 21): 100% | Means of Tumor Volume ([3]; day of treatment 25): 0 mm^3 | Percent Tumor Regression (PTR %) ([3]; day of treatment 25): 100% | Means of Tumor Volume ([3]; day of treatment 28): 0 mm^3 | Percent Tumor Regression (PTR %) ([3]; day of treatment 28): 100% | tumor regression (in words) ([3]; after 11 days of compound treatment): complete tumor regression | IC50 (JAK2): 845 nM | IC50 (FLT3 mutant D835Y): 0.4 nM | inhibition of kinase activity of FLT3 mutant D835Y (in words) (FLT3 mutant D835Y): strong inhibition

CN1CCC(Nc2nc(Nc3ccc(Oc4cccc(F)c4)cc3)c3c(=O)[nH]cc(Br)c3n2)CC1 [Compound 240, 8-bromo-4-((4-(3-fluorophenoxy)phenyl)amino)-2-((1-methylpiperidin-4-yl)amino) pyrido[4,3-d]pyrimidin-5(6H)-one]
IC50 [1]: 0.5 nM | IC50 [2]: 1.2 nM | IC50 (JAK2): 599 nM | IC50 (FLT3 mutant D835Y): 1.3 nM

CN1CCC(Nc2nc(Nc3ccc(Oc4ccc(F)c(F)c4)cc3)c3c(=O)[nH]cc(Br)c3n2)CC1 [Compound 241, 8-bromo-4-((4-(3,4-difluorophenoxy)phenyl)amino)-2-((1-methylpiperidin-4-yl)amino)pyrido[4,3-d]pyrimidin-5(6H)-one hydrochloride]
IC50 ([1]; Homo sapiens, MV4-11, 72 h): 0.9 nM | IC50 [2]: 1.6 nM | IC50 (JAK2): 1050 nM | IC50 (FLT3 mutant D835Y): 0.6 nM

CN1CCC(Nc2nc(Nc3cccc(Oc4ccccc4)c3)c3c(=O)[nH]cc(Br)c3n2)CC1 [Compound 246, 8-bromo-2-((1-methylpiperidin-4-yl)amino)-4-((3-phenoxyphenyl)amino)pyrido[4,3-d]pyrimidin-5(6H)-one]
IC50 ([1]; Homo sapiens, MV4-11, 72 h): 1.4 nM | IC50 [2]: 0.1 nM | IC50 (JAK2): 260 nM | IC50 (FLT3 mutant D835Y): 1.7 nM
